Data reported in patent US5401490A, “Markers of tissue hypoxia” (priority 1989, dated 1995).
Read-outs that look alike come from different tables or passages of the source.

Legend:
EMT-6 tumor tissue = test: Imaging study using ^125 I-IAZA; type: in vivo
[1] = Tissue distribution of radioactivity after intravenous injection; type: in vivo, BALB/C mice; conditions: mouse, iv, i.v.; for tissue uptake at 0.5 h: 0.50 h
Source text: Tables 1 and 2 show the percent of injected IAZG and IAZA respectively per gram of wet tissue for selected tissues excised from BALB/C mice bearing EMT-6 tumors. This tumor model is known to have a high hypoxic fraction (0.33) (16). […] Hepatobiliary excretion may play a role in blood clearance as evidenced by elevated liver radioactivity and the appearance of activity in the intestine. Some oxidative or reductive metabolites of the 2-nitroimidazoles may also become bound to liver tissue, as was postulated in an in vivo study with ^14 C-MISO (6). This supposition is supported by the persistence of liver radioactivity at longer time periods. […] At 8 and 24 hours thyroid levels of IAZG are 7.2 and 30.9% of the total body activity and for IAZA they are 7.9 and 33.8% of total body activity. EXAMPLE 11 TISSUE DISTRIBUTION AND EXCRETION Tumor propagation of EMT-6 tumors in BALB/C mice was accomplished by subcutaneous injection of a cell suspension (10^5 cells in 0.1 mL) as described previously (10). Tumors reached about 10 mm in diameter (≈0.5 g) at 12 to 14 days, at which time each animal was given a bolus intravenous injection of ^125 I-labelled test drug via the tail vein (40 to 60 kBq in 0.1 mL). At set time periods the animals were asphyxiated with CO2 and exsanguinated via cardiac puncture. Tissues were dissected, weighed wet into vials and counted for ^125 I-activity. Whole-body activity was determined by summation of total activity in tissues and in residual carcass, and blood activity was determined from the blood aliquot, assuming blood to be 6.5% of the total body weight. EXAMPLE 12 Male BALB/c mice (20-25 g) were inoculated subcutaneously in the left flank with a suspension of murine EMT-6 cells (10^5 cells in 0.1 mL) (14). After 12 to 14 days, when the tumors reached the desired size (8-10 mm diameter), each mouse received a single intravenous (iv) injection of ^125 I-IAZA (59 kBq in 0.1 mL). […] Heart, lung, liver, spleen, muscle, bone, thyroid, kidney, stomach, small intestine, tail, tumor and skin were removed upon necropsy, weighed and analyzed for ^125 I using a Beckman Model 8000 gamma scintillation counter. The remaining carcass mass was also weighed and radioassayed.

[2] = blood, read-out: Percent of Injected Dose per Gram, Blood
[3] = bone, read-out: Percent of Injected Dose per Gram, Bone
[4] = carcass, read-out: Percent of Injected Dose per Gram, Carcass
[5] = heart, read-out: Percent of Injected Dose per Gram, Heart
[6] = intestine, read-out: Percent of Injected Dose per Gram, Intestine
[7] = kidney, read-out: Percent of Injected Dose per Gram, Kidney
[8] = liver, read-out: Percent of Injected Dose per Gram, Liver
[9] = lung, read-out: Percent of Injected Dose per Gram, Lung
[10] = muscle, read-out: Percent of Injected Dose per Gram, Muscle
[11] = spleen, read-out: Percent of Injected Dose per Gram, Spleen
[12] = stomach, read-out: Percent of Injected Dose per Gram, Stomach
[13] = tumor, read-out: Percent of Injected Dose per Gram, Tumor

O=[N+]([O-])c1nccn1[C@@H]1O[C@H](CI)[C@@H](O)[C@@H]1O [IAZA, 1-(5-iodo-5-deoxy-β-D-arabino-furanosyl)-2-nitroimidazole]
delineation of tumor tissue in imaging (EMT-6 tumor tissue): clearly delineated from surrounding tissue | tissue uptake at 0.25 h [1, 2]: 2.63 ± 0.28 %ID/g | tissue uptake at 0.5 h [1, 2]: 2.17 ± 0.85 %ID/g | tissue uptake at 1 h [1, 2]: 1.84 ± 0.72 %ID/g | tissue uptake at 2 h [1, 2]: 0.91 ± 1.56 %ID/g | tissue uptake at 4 h [1, 2]: 0.45 ± 1.24 %ID/g | tissue uptake at 8 h [1, 2]: 0.14 ± 0.07 %ID/g | tissue uptake at 24 h [1, 2]: 0.037 ± 0.047 %ID/g | tissue uptake at 0.25 h [1, 3]: 1.31 ± 0.18 %ID/g | tissue uptake at 0.5 h [1, 3]: 1.37 ± 0.57 %ID/g | tissue uptake at 1 h [1, 3]: 1.15 ± 0.52 %ID/g | tissue uptake at 2 h [1, 3]: 0.58 ± 0.26 %ID/g | tissue uptake at 4 h [1, 3]: 0.27 ± 0.09 %ID/g | tissue uptake at 8 h [1, 3]: 0.08 ± 0.03 %ID/g | tissue uptake at 24 h [1, 3]: 0.022 ± 0.03 %ID/g | tissue uptake at 0.25 h [1, 4]: 2.68 ± 0.44 %ID/g | tissue uptake at 0.5 h [1, 4]: 2.55 ± 0.37 %ID/g | tissue uptake at 1 h [1, 4]: 2.23 ± 0.91 %ID/g | tissue uptake at 2 h [1, 4]: 1.46 ± 0.29 %ID/g | tissue uptake at 4 h [1, 4]: 0.89 ± 0.52 %ID/g | tissue uptake at 8 h [1, 4]: 0.28 ± 0.12 %ID/g | tissue uptake at 24 h [1, 4]: 0.038 ± 0.016 %ID/g | tissue uptake at 0.25 h [1, 5]: 4.69 ± 0.91 %ID/g | tissue uptake at 0.5 h [1, 5]: 3.56 ± 0.66 %ID/g | tissue uptake at 1 h [1, 5]: 2.78 ± 1.3 %ID/g | tissue uptake at 2 h [1, 5]: 1.03 ± 0.43 %ID/g | tissue uptake at 4 h [1, 5]: 0.32 ± 0.24 %ID/g | tissue uptake at 8 h [1, 5]: 0.22 ± 0.05 %ID/g | tissue uptake at 24 h [1, 5]: 0.042 ± 0.017 %ID/g | tissue uptake at 0.25 h [1, 6]: 5.42 ± 1.03 %ID/g | tissue uptake at 0.5 h [1, 6]: 4.44 ± 0.62 %ID/g | tissue uptake at 1 h [1, 6]: 4.63 ± 1.92 %ID/g | tissue uptake at 2 h [1, 6]: 1.73 ± 0.55 %ID/g | tissue uptake at 4 h [1, 6]: 0.81 ± 0.46 %ID/g | tissue uptake at 8 h [1, 6]: 0.77 ± 0.36 %ID/g | tissue uptake at 24 h [1, 6]: 0.041 ± 0.016 %ID/g | tissue uptake at 0.25 h [1, 7]: 6.56 ± 0.63 %ID/g | tissue uptake at 0.5 h [1, 7]: 5.67 ± 0.95 %ID/g | tissue uptake at 1 h [1, 7]: 4.38 ± 1.25 %ID/g | tissue uptake at 2 h [1, 7]: 1.8 ± 0.61 %ID/g | tissue uptake at 4 h [1, 7]: 0.66 ± 0.39 %ID/g | tissue uptake at 8 h [1, 7]: 0.34 ± 0.06 %ID/g | tissue uptake at 24 h [1, 7]: 0.52 ± 0.004 %ID/g | tissue uptake at 0.25 h [1, 8]: 8.65 ± 1.02 %ID/g | tissue uptake at 0.5 h [1, 8]: 7.14 ± 1.13 %ID/g | tissue uptake at 1 h [1, 8]: 5.63 ± 2.27 %ID/g | tissue uptake at 2 h [1, 8]: 2.18 ± 0.8 %ID/g | tissue uptake at 4 h [1, 8]: 0.95 ± 0.58 %ID/g | tissue uptake at 8 h [1, 8]: 0.47 ± 0.1 %ID/g | tissue uptake at 24 h [1, 8]: 0.098 ± 0.008 %ID/g | tissue uptake at 0.25 h [1, 9]: 4.61 ± 0.82 %ID/g | tissue uptake at 0.5 h [1, 9]: 3.77 ± 0.67 %ID/g | tissue uptake at 1 h [1, 9]: 2.99 ± 1.41 %ID/g | tissue uptake at 2 h [1, 9]: 1.15 ± 0.38 %ID/g | tissue uptake at 4 h [1, 9]: 0.45 ± 0.3 %ID/g | tissue uptake at 8 h [1, 9]: 0.33 ± 0.07 %ID/g | tissue uptake at 24 h [1, 9]: 0.037 ± 0.008 %ID/g | tissue uptake at 0.25 h [1, 10]: 3.09 ± 0.67 %ID/g | tissue uptake at 0.5 h [1, 10]: 2.77 ± 0.54 %ID/g | tissue uptake at 1 h [1, 10]: 2.19 ± 1.03 %ID/g | tissue uptake at 2 h [1, 10]: 0.69 ± 0.29 %ID/g | tissue uptake at 4 h [1, 10]: 0.24 ± 0.12 %ID/g | tissue uptake at 8 h [1, 10]: 0.36 ± 0.31 %ID/g | tissue uptake at 24 h [1, 10]: 0.02 ± 0.004 %ID/g | tissue uptake at 0.25 h [1, 11]: 3.57 ± 0.67 %ID/g | tissue uptake at 0.5 h [1, 11]: 3 ± 0.62 %ID/g | tissue uptake at 1 h [1, 11]: 2.48 ± 1.25 %ID/g | tissue uptake at 2 h [1, 11]: 0.93 ± 0.37 %ID/g | tissue uptake at 4 h [1, 11]: 0.35 ± 0.2 %ID/g | tissue uptake at 8 h [1, 11]: 0.18 ± 0.04 %ID/g | tissue uptake at 24 h [1, 11]: 0.036 ± 0.034 %ID/g | tissue uptake at 0.25 h [1, 12]: 4.36 ± 0.7 %ID/g | tissue uptake at 0.5 h [1, 12]: 4.75 ± 1.05 %ID/g | tissue uptake at 1 h [1, 12]: 3.95 ± 0.93 %ID/g | tissue uptake at 2 h [1, 12]: 3.3 ± 0.93 %ID/g | tissue uptake at 4 h [1, 12]: 1.81 ± 1.6 %ID/g | tissue uptake at 8 h [1, 12]: 0.87 ± 0.54 %ID/g | tissue uptake at 24 h [1, 12]: 0.067 ± 0.014 %ID/g | tissue uptake at 0.25 h [1, 13]: 2.55 ± 0.86 %ID/g | tissue uptake at 0.5 h [1, 13]: 3.48 ± 0.46 %ID/g | tissue uptake at 1 h [1, 13]: 2.7 ± 0.39 %ID/g | tissue uptake at 2 h [1, 13]: 2.55 ± 1.65 %ID/g | tissue uptake at 4 h [1, 13]: 2.08 ± 0.27 %ID/g | tissue uptake at 8 h [1, 13]: 1.22 ± 0.24 %ID/g | tissue uptake at 24 h [1, 13]: 0.206 ± 0.23 %ID/g
